Experimental data reported in patent publication US6884813B2, “Antimicrobial dihydrothiazine and dihydrothiopyran oxazolidinones” (Pharmacia & Upjohn Company, priority 2002, dated 2005).
In brackets after ≈: the same amount, converted by molar mass.

Legend:
SPNE 9912 = test: Minimum inhibitory concentration (MIC) by agar dilution; assay type: cell-based; conditions: Streptococcus pneumoniae, lowest concentration of drug that inhibits visible growth of the organism, strain SPNE 9912, read-out: Antibacterial Activity, Minimum Inhibitory Concentration (MIC μg/mL) SPNE 9912
Source text: Compounds of this invention have useful activity against a variety of organisms. The in vitro activity of compounds of this invention can be assessed by standard testing procedures such as the determination of minimum inhibitory concentration (MIC) by agar dilution as described in “Approved Standard. Methods for Dilution Antimicrobial Susceptibility Tests for Bacteria That Grow Aerobically”, 3rd. ed., published 1993 by the National Committee for Clinical Laboratory Standards, Villanova, Pa., USA. Minimum inhibitory concentration (MIC) refers to lowest concentration of drug (μg/mL) that inhibits visible growth of the organism. “- -” refers to the activity data is not available.

Compound	MIC (SPNE 9912) [µg/mL]	melting point [°C]
O=C1O[C@@H](CNC(=O)C(F)(F)F)CN1c1ccc(C2C=CSCC2)c(F)c1 (stereo partly drawn) [Example 1, N-[[(5S)-3-[4-(3,4-dihydro-2H-thiopyran-4-yl)-3-fluorophenyl]-2-oxo-5-oxazolidinyl]methyl]-2,2,2-trifluoroacetamide]	2 (≈ 4.95 µM)	
CC(=O)NC[C@H]1CN(c2ccc(C3C=CSCC3)c(F)c2)C(=O)O1 (stereo partly drawn) [Example 2, N-[[(5S)-3-[4-(3,4-dihydro-2H-thiopyran-4-yl)-3-fluorophenyl]-2-oxo-5-oxazolidinyl]methyl]acetamide]	1 (≈ 2.85 µM)	
CC(=O)NC[C@H]1CN(c2ccc(C3C=C[S+]([O-])CC3)c(F)c2)C(=O)O1 (stereo partly drawn) [Example 4, N-[[(5S)-3-[4-(3,4-dihydro-1-oxido-2H-thiopyran-4-yl)-3-fluorophenyl]-2-oxo-5-oxazolidinyl]methyl]acetamide]	1 (≈ 2.73 µM)	
O=C(NC[C@H]1CN(c2ccc(C3C=CS(=O)(=O)CC3)c(F)c2)C(=O)O1)C(F)F (stereo partly drawn) [Example 9, N-[[(5S)-3-[4-(3,4-dihydro-1,1-dioxido-2H-thiopyran-4-yl)-3-fluorophenyl]-2-oxo-5-oxazolidinyl]methyl]-2,2-difluoroacetamide]	0.5 (≈ 1.2 µM)	
O=C(NC[C@H]1CN(c2ccc(C3C=CS(=O)(=O)CC3)c(F)c2)C(=O)O1)C(Cl)Cl (stereo partly drawn) [Example 11, 2,2-dichloro-N-[[(5S)-3-[4-(3,4-dihydro-1,1-dioxido-2H-thiopyran-4-yl)-3-fluorophenyl]-2-oxo-5-oxazolidinyl]methyl]acetamide]	0.5 (≈ 1.11 µM)	148 to 150
CC(=O)NC[C@H]1CN(c2ccc(C3C=CS(=O)(=O)CC3)cc2)C(=O)O1 (stereo partly drawn) [Example 14, N-[[(5S)-3-[4-(3,4-dihydro-1,1-dioxido-2H-thiopyran-4-yl)phenyl]-2-oxo-5-oxazolidinyl]methyl]acetamide]	1 (≈ 2.74 µM)	187 to 189
O=C(NC[C@H]1CN(c2ccc(C3C=CS(=O)(=O)CC3)cc2)C(=O)O1)C(F)F (stereo partly drawn) [Example 15, N-[[(5S)-3-[4-(3,4-dihydro-1,1-dioxido-2H-thiopyran-4-yl)phenyl]-2-oxo-5-oxazolidinyl]methyl]-2,2-difluoroacetamide]	0.5 (≈ 1.25 µM)	135 to 136
CCC(=O)NC[C@H]1CN(c2ccc(C3C=CS(=O)(=O)CC3)cc2)C(=O)O1 (stereo partly drawn) [Example 18, N-[[(5S)-3-[4-(3,4-dihydro-1,1-dioxido-2H-thiopyran-4-yl)phenyl]-2-oxo-5-oxazolidinyl]methyl]propionamide]	1 (≈ 2.64 µM)	144 to 147
COC(=O)NC[C@H]1CN(c2ccc(C3C=CS(=O)(=O)CC3)cc2)C(=O)O1 (stereo partly drawn) [Example 19, (S)-[[3-[4-(3,4-dihydro-1,1-dioxido-2H-thiopyran-4-yl)phenyl]-2-oxo-5-oxazolidinyl]methyl]carbamic acid, methyl ester]	2 (≈ 5.26 µM)	196 to 197
CC(=O)NC[C@H]1CN(c2cc(F)c(C3C=CS(=O)(=O)CC3)c(F)c2)C(=O)O1 (stereo partly drawn) [Example 20, N-[[(5S)-3-[4-(3,4-dihydro-1,1-dioxido-2H-thiopyran-4-yl)-3,5-difluorophenyl]-2-oxo-5-oxazolidinyl]methyl]acetamide]	1 (≈ 2.5 µM)	
O=C(NC[C@H]1CN(c2ccc(N3C=CS(=O)(=O)CC3)c(F)c2)C(=O)O1)C(F)F [Example 23, N-[[(5S)-3-[4-(2,3-dihydro-1,1-dioxido-4H-1,4-thiazin-4-yl)-3-fluorophenyl]-2-oxo-5-oxazolidinyl]methyl]-2,2-difluoroacetamide]	0.5 (≈ 1.19 µM)	
O=C1O[C@@H](CNC(=S)C(F)F)CN1c1ccc(N2C=CS(=O)(=O)CC2)cc1 [Example 24, N-[[(5S)-3-[4-(2,3-dihydro-1,1-dioxido-4H-1,4-thiazin-4-yl)phenyl]-2-oxo-5-oxazolidinyl]methyl]-2,2-difluoroethanethioamide]	0.5 (≈ 1.2 µM)	
O=C(NC[C@H]1CN(c2ccc(N3C=CS(=O)(=O)CC3)cc2)C(=O)O1)C(Cl)Cl [Example 25, 2,2-dichloro-N-[[(5S)-3-[4-(2,3-dihydro-1,1-dioxido-4H-1,4-thiazin-4-yl)phenyl]-2-oxo-5-oxazolidinyl]methyl]acetamide]	1 (≈ 2.3 µM)	
O=C(NC[C@H]1CN(c2ccc(N3C=CS(=O)(=O)CC3)cc2)C(=O)O1)C(F)F [Example 26, N-[[(5S)-3-[4-(2,3-dihydro-1,1-dioxido-4H-1,4-thiazin-4-yl)phenyl]-2-oxo-5-oxazolidinyl]methyl]-2,2-difluoroacetamide]	1 (≈ 2.49 µM)	
O=C(NC[C@H]1CN(c2cc(F)c(N3C=CS(=O)(=O)CC3)c(F)c2)C(=O)O1)C(Cl)Cl [Example 28, 2,2-dichloro-N-[[(5S)-3-[4-(2,3-dihydro-1,1-dioxido-4H-1,4-thiazin-4-yl)-3,5-difluorophenyl]-2-oxo-5-oxazolidinyl]methyl]acetamide]	0.5 (≈ 1.06 µM)	
O=C(NC[C@H]1CN(c2cc(F)c(N3C=CS(=O)(=O)CC3)c(F)c2)C(=O)O1)C(F)F [Example 29, N-[[(5S)-3-[4-(2,3-dihydro-1,1-dioxido-4H-1,4-thiazin-4-yl)-3,5-difluorophenyl]-2-oxo-5-oxazolidinyl]methyl]-2,2-difluoroacetamide]	0.5 (≈ 1.14 µM)	
O=C(NC[C@H]1CN(c2cc(F)c(C3C=CS(=O)(=O)CC3)c(F)c2)C(=O)O1)C(F)F (stereo partly drawn) [Example 30, N-({(5S)-3-[4-(1,1-dioxido-3,4-dihydro-2H-thiopyran-4-yl)-3,5-difluorophenyl]-2-oxo-1,3-oxazolidin-5-yl}methyl)-2,2-difluoroacetamide]	1 (≈ 2.29 µM)	
O=C(NC[C@H]1CN(c2cc(F)c(C3C=CS(=O)(=O)CC3)c(F)c2)C(=O)O1)C(Cl)Cl (stereo partly drawn) [Example 31, 2,2-dichloro-N-({(5S)-3-[4-(1,1-dioxido-3,4-dihydro-2H-thiopyran-4-yl)-3,5-difluorophenyl]-2-oxo-1,3-oxazolidin-5-yl}methyl)acetamide]	0.5 (≈ 1.07 µM)	
O=C1O[C@@H](CNC(=S)C(F)F)CN1c1cc(F)c(C2C=CS(=O)(=O)CC2)c(F)c1 (stereo partly drawn) [Example 32, N-({(5S)-3-[4-(1,1-dioxido-3,4-dihydro-2H-thiopyran-4-yl)-3,5-difluorophenyl]-2-oxo-1,3-oxazolidin-5-yl}methyl)-2,2-difluoroethanethioamide]	0.5 (≈ 1.11 µM)	

Second part, the molecule after the results:

MIC (SPNE 9912) [µg/mL]	melting point [°C]	Compound
0.5 (≈ 1.36 µM)		CC(=S)NC[C@H]1CN(c2ccc(C3C=CSCC3)c(F)c2)C(=O)O1 (stereo partly drawn) [Example 3, N-[[(5S)-3-[4-(3,4-dihydro-2H-thiopyran-4-yl)-3-fluorophenyl]-2-oxo-5-oxazolidinyl]methyl]ethanethioamide]
0.25 (≈ 0.654 µM)		CC(=O)NC[C@H]1CN(c2ccc(C3C=CS(=O)(=O)CC3)c(F)c2)C(=O)O1 (stereo partly drawn) [Example 5, N-[[(5S)-3-[4-(3,4-Dihydro-1,1-dioxido-2H-thiopyran-4-yl)-3-fluorophenyl]-2-oxo-5-oxazolidinyl]methyl]acetamide]
0.25 (≈ 0.654 µM)		CC(=S)NC[C@H]1CN(c2ccc(C3C=C[S+]([O-])CC3)c(F)c2)C(=O)O1 (stereo partly drawn) [Example 6, N-[[(5S)-3-[4-(3,4-dihydro-1-oxido-2H-thiopyran-4-yl)-3-fluorophenyl]-2-oxo-5-oxazolidinyl]methyl]ethanethioamide]
0.5 (≈ 1.3 µM)	193 to 194	CC(=O)NC[C@H]1CN(c2ccc(N3C=CS(=O)(=O)CC3)c(F)c2)C(=O)O1 [Example 7, N-[[(5S)-3-[4-(2,3-dihydro-1,1-dioxido-4H-1,4-thiazin-4-yl)-3-fluorophenyl]-2-oxo-5-oxazolidinyl]methyl]acetamide]
0.5 (≈ 1.25 µM)		CC(=O)NC[C@H]1CN(c2cc(F)c(N3C=CS(=O)(=O)CC3)c(F)c2)C(=O)O1 [Example 8, N-[[(5S)-3-[4-(2,3-dihydro-1,1-dioxido-4H-1,4-thiazin-4-yl)-3,5-difluorophenyl]-2-oxo-5-oxazolidinyl]methyl]acetamide]
0.25 (≈ 0.575 µM)		O=C1O[C@@H](CNC(=S)C(F)F)CN1c1ccc(C2C=CS(=O)(=O)CC2)c(F)c1 (stereo partly drawn) [Example 10, N-[[(5S)-3-[4-(3,4-dihydro-1,1-dioxido-2H-thiopyran-4-yl)-3-fluorophenyl]-2-oxo-5-oxazolidinyl]methyl]-2,2-difluoroethanethioamide]
0.25 (≈ 0.577 µM)	159 to 161	O=C(NC[C@H]1CN(c2ccc(C3C=CS(=O)(=O)CC3)cc2)C(=O)O1)C(Cl)Cl (stereo partly drawn) [Example 16, 2,2-dichloro-N-[[(5S)-3-[4-(3,4-dihydro-1,1-dioxido-2H-thiopyran-4-yl)phenyl]-2-oxo-5-oxazolidinyl]methyl]acetamide]
0.25 (≈ 0.6 µM)	139 to 140	O=C1O[C@@H](CNC(=S)C(F)F)CN1c1ccc(C2C=CS(=O)(=O)CC2)cc1 (stereo partly drawn) [Example 17, [[(5S)-3-[4-(3,4-dihydro-1,1-dioxido-2H-thiopyran-4-yl)phenyl]-2-oxo-5-oxazolidinyl]methyl]-2,2-difluoroethanethioamide]
0.25 (≈ 0.574 µM)		O=C1O[C@@H](CNC(=S)C(F)F)CN1c1ccc(N2C=CS(=O)(=O)CC2)c(F)c1 [Example 21, N-[[(5S)-3-[4-(2,3-dihydro-1,1-dioxido-4H-1,4-thiazin-4-yl)-3-fluorophenyl]-2-oxo-5-oxazolidinyl]methyl]-2,2-difluoroethanethioamide]
0.25 (≈ 0.553 µM)		O=C(NC[C@H]1CN(c2ccc(N3C=CS(=O)(=O)CC3)c(F)c2)C(=O)O1)C(Cl)Cl [Example 22, 2,2-dichloro-N-[[(5S)-3-[4-(2,3-dihydro-1,1-dioxido-4H-1,4-thiazin-4-yl)-3-fluorophenyl]-2-oxo-5-oxazolidinyl]methyl]acetamide]
0.25 (≈ 0.551 µM)		O=C1O[C@@H](CNC(=S)C(F)F)CN1c1cc(F)c(N2C=CS(=O)(=O)CC2)c(F)c1 [Example 27, N-[[(5S)-3-[4-(2,3-dihydro-1,1-dioxido-4H-1,4-thiazin-4-yl)-3,5-difluorophenyl]-2-oxo-5-oxazolidinyl]methyl]-2,2-difluoroethanethioamide]
